Inconclusive results and toxic doses are left out. Rule for the calls: active = survival T/C of 150% or more; inactive = T/C below 125% in these data.
Tested on: BDF1 mice, B16 melanoma ip, median survival T/C
Assay: NCI In Vivo Anticancer Drug Screen. Data for tumor model B16 Melanoma (intraperitoneal) in B6D2F1 (BDF1) mice
Settings: endpoint: median survival time, higher = longer survival
Method in brief: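 Survival or tumor size is measured after treatment of tumor-bearing mice and normalised to the vehicle-treated control group.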

[1] = dose: 12.5 mg/kg/injection, schedule: Q01DX009 (ip), vehicle: saline with Tween-80
[2] = dose: 25.0 mg/kg/injection, schedule: Q01DX009 (ip), vehicle: saline with Tween-80
[3] = dose: 100.0 mg/kg/injection, schedule: Q01DX009 (ip), vehicle: Klucel (hydroxypropylcellulose) (HPC)
[4] = dose: 200.0 mg/kg/injection, schedule: Q01DX009 (ip), vehicle: Klucel (hydroxypropylcellulose) (HPC)
[5] = dose: 400.0 mg/kg/injection, schedule: Q01DX009 (ip), vehicle: Klucel (hydroxypropylcellulose) (HPC)
[6] = dose: 25.0 mg/kg/injection, schedule: Q01DX009 (ip), vehicle: Klucel (hydroxypropylcellulose) (HPC)
[7] = dose: 50.0 mg/kg/injection, schedule: Q01DX009 (ip), vehicle: Klucel (hydroxypropylcellulose) (HPC)
[8] = dose: 100.0 mg/kg/injection, schedule: Q04DX003 (ip), vehicle: Klucel (hydroxypropylcellulose) (HPC)
[9] = dose: 200.0 mg/kg/injection, schedule: Q04DX003 (ip), vehicle: Klucel (hydroxypropylcellulose) (HPC)
[10] = dose: 400.0 mg/kg/injection, schedule: Q04DX003 (ip), vehicle: Klucel (hydroxypropylcellulose) (HPC)

Measured: T/C

COc1ccccc1N1C(N)=NC(N)=NC1(C)C
inactive: dose: 25.0 mg/kg/injection, schedule: Q01DX009 (ip), vehicle: saline 102 % of control | dose: 50.0 mg/kg/injection, schedule: Q01DX009 (ip), vehicle: saline 108 % of control

O=C(CCl)N1CCC2(CC1)SSC1(CCN(C(=O)CCl)CC1)S2
inactive: [1] 100 % of control | [2] 90 % of control

Cc1cc2c(cc1C)NC(=O)C(C)CN2 (stereo unspecified)
inactive: [3] 90 % of control | [4] 88 % of control | [5] 87 % of control

COc1ccc2c(c1)N(CCCN(C)C)c1ccccc1S2
inactive: dose: 2.34 mg/kg/injection, schedule: Q01DX009 (ip), vehicle: saline 102 % of control | dose: 4.68 mg/kg/injection, schedule: Q01DX009 (ip), vehicle: saline 110 % of control | dose: 18.75 mg/kg/injection, schedule: Q01DX009 (ip), vehicle: saline 102 % of control | dose: 37.5 mg/kg/injection, schedule: Q01DX009 (ip), vehicle: saline 110 % of control

N#Cc1cn(C2OC(CO)C(O)C2O)c2ncnc(N)c12 (stereo unspecified)
inactive: dose: 0.06 mg/kg/injection, schedule: Q01DX009 (ip), vehicle: saline 120 % of control | dose: 0.12 mg/kg/injection, schedule: Q01DX009 (ip), vehicle: saline 118 % of control | dose: 0.25 mg/kg/injection, schedule: Q01DX009 (ip), vehicle: saline 105 % of control

C=C(C)C1C2CC3(C)C4(CO4)C4OC4C3(O)C1C(=O)O2 (stereo unspecified)
inactive: dose: 0.07 mg/kg/injection, schedule: Q01DX009 (ip), vehicle: Klucel (hydroxypropylcellulose) (HPC) 102 % of control | dose: 0.15 mg/kg/injection, schedule: Q01DX009 (ip), vehicle: Klucel (hydroxypropylcellulose) (HPC) 104 % of control | dose: 0.3 mg/kg/injection, schedule: Q01DX009 (ip), vehicle: Klucel (hydroxypropylcellulose) (HPC) 106 % of control | dose: 0.6 mg/kg/injection, schedule: Q01DX009 (ip), vehicle: Klucel (hydroxypropylcellulose) (HPC) 98 % of control | dose: 1.2 mg/kg/injection, schedule: Q01DX009 (ip), vehicle: Klucel (hydroxypropylcellulose) (HPC) 101 % of control

C[C@]12CCC(=O)C=C1CC[C@@H]1[C@@H]2C(=O)C[C@]2(C)C3=CC(=O)O[C@H]3C[C@@H]12
inactive: [1] 100 % of control | [2] 100 % of control

COc1ccc(CCNC(C)=O)cc1OC
inactive: [6] 91 % of control | [7] 89 % of control

Brc1ccc2c(c1)-c1ccccc1C1=NCCN12
inactive: dose: 2.5 mg/kg/injection, schedule: Q01DX009 (ip), vehicle: Klucel (hydroxypropylcellulose) (HPC) 118 % of control | dose: 5.0 mg/kg/injection, schedule: Q01DX009 (ip), vehicle: Klucel (hydroxypropylcellulose) (HPC) 103 % of control | dose: 5.0 mg/kg/injection, schedule: Q04DX003 (ip), vehicle: saline with Tween-80 100 % of control | dose: 10.0 mg/kg/injection, schedule: Q01DX009 (ip), vehicle: Klucel (hydroxypropylcellulose) (HPC) 93 % of control | dose: 10.0 mg/kg/injection, schedule: Q04DX003 (ip), vehicle: saline with Tween-80 102 % of control | dose: 10.0 mg/kg/injection, schedule: Q04DX003 (ip), vehicle: saline 105 % of control | dose: 20.0 mg/kg/injection, schedule: Q04DX003 (ip), vehicle: saline with Tween-80 100 % of control

O=c1[nH]cnc2nc(/N=N/SCCO)[nH]c12
inactive: [6] 100 % of control | [7] 103 % of control | [3] 101 % of control | [4] 98 % of control

CNc1ccc(C(=O)O)cc1I
inactive: [3] 105 % of control | [8] 100 % of control | [4] 120 % of control | [9] 104 % of control | [5] 91 % of control | [10] 100 % of control

COC(=O)C(=O)[C@@H](O)[C@H](O)[C@@H](O)CO
inactive: [8] 94 % of control | [9] 94 % of control | [10] 100 % of control

COC(=O)CC(=O)CBr
inactive: dose: 5.0 mg/kg/injection, schedule: Q01DX009 (ip), vehicle: saline 100 % of control | dose: 10.0 mg/kg/injection, schedule: Q01DX009 (ip), vehicle: saline 93 % of control | dose: 20.0 mg/kg/injection, schedule: Q01DX009 (ip), vehicle: saline 94 % of control

Source: PubChem BioAssay AID192 (DTP/NCI, 2004)
